Tested on: COLO205 cells
Assay: Phospho-proteome profiling (CDK-motif antibody enrichment, LC-MS/MS)
Type: cell-based, human
Details: for CMPD 1/DMSO / MEAN MS SIGNAL CMPD 1 6 H: 6 H
Description: We phospho-proteome profiled COLO205 cells to identify Mediator kinase substrates following chemical inhibition of Mediator kinase activity. Given the confirmed CDK8/19 selectivity of our compounds in binding and enzymatic activity assays, we employed a pool of antibodies selective for the proline-rich motifs phosphorylated by the CDK family to enrich potential CDK8/19 substrates for LC-MS/MS analysis.
Adherent COLO205 cells were lysed with a urea buffer, lysates were reduced with DTT, alkylated with iodoacetimide and digested with trypsin-tosylphenylalanyl chloromethyl ketone. Digested peptides were immunoprecipitated using a pool of motif antibodies from Cell Signaling Technologies (US) comprising: phospho-MAPK substrate (PXS*P or S*PXR/K, #2325, RRID:AB_331820), phospho-CDKs substrate ((K/H)-S*P, #2324; RRID:AB_2244779), phospho-PLK binding motif (ST*P, #5243; RRID:AB_10891778) and phospho-tPE motif (T*PE, #3004; RRID:AB_10890649)-of phospho-MAPK (2325), phospho-CDK (2324), phospho-PLK (5243) and phospho-tPE (C3004) motif-recognizing antibodies immobilized onto protein A/G beads. Immunoprecipitated peptides were analyzed using an LTQ-Orbitrap-Velos. Sequences were assigned to the MS/MS spectra and evaluated using SEQUEST 3G and SORCERER 2 (Sage-N Research v4.0, Milpitas). Quantitative data was evaluated and clustered in Spotfire Decision Site (www.spotfire.tibco.com) and normalized using quartile normalization. Functional annotation and pathway analysis used DAVID (https://david.ncifcrf.gov/). […]
Phospho-proteome analyses
Adherent COLO205 cells were washed with PBS and cells lysed using urea lysis buffer (9 M Urea, 20 mM HEPES, pH 8.0, 1 mM beta-glycerophosphate, 1 mM sodium vanadate, 2.5 mM sodium pyrophosphate) and stored at -80 °C prior to analysis. The supernatants were reduced with 100 mM DTT for 30 minutes at 55 °C, followed by alkylation with 50 mM iodoacetimide for 15 minutes at ambient temperature in the dark.
The samples were diluted in 20 mM HEPES, pH 8.0 and digested overnight with 10 ug/mL trypsin-tosylphenylalanyl chloromethyl ketone in 1 mM HCl. Digested peptides were acidified with 1% formic acid and then desalted over 360-mg SEP PAK C18 columns (Waters, UK). Peptides were eluted with 40% acetonitrile in 0.125% formic acid, dried under a vacuum and the lyophilised peptides used for immunoprecipitation.
A pool of motif antibodies from Cell Signaling Technologies (US) comprising: phospho-MAPK substrate (PXS*P or S*PXR/K, #2325, RRID:AB_331820), phospho-CDKs substrate ((K/H)S*P, #2324; RRID:AB_2244779), phospho-PLK binding motif (ST*P, […]
RRID:AB_10890649), were immobilised onto protein A/G beads overnight at 4 °C. The lyophilised peptides were resuspended in MOPS buffer (50 mM MOPS, pH 7.2, 10 mM KH2PO4, 50 mM NaCl) and centrifuged for 5 mins at 13,500 rpm in an Eppendorf benchtop microcentrifuge. The supernatants were incubated with the motif-bound beads for 2.5 hours at 4 °C . The beads were harvested by centrifugation at 4000 rpm in an Eppendorf benchtop microcentrifuge for 5 mins, washed with MOPS buffer twice and washed again 5 times with deionised water. The peptides were eluted off the beads using 0.125% formic acid, were desalted and dried under a vacuum. The lyophilised immunoprecipitated peptides were resuspended in 0.125% formic acid and separated on a capillary column packed with Magic C18 AQ reversed-phase resin.
Peptides were eluted using a 72-minute linear gradient of acetonitrile in 0.125% formic acid delivered at 280nL/min. Samples were analysed using an LTQ-Orbitrap-Velos.
MS Parameter Settings were: MS Run Time 96 min, MS1 Scan Range (300.0 – 1500.00), Top 20 MS/MS (Min Signal 500, Isolation Width 2.0, Normalized Coll.
Charge State Rejection Enabled, Charge State 1+ Rejected, Dynamic Exclusion Enabled, Repeat Count 1, Repeat Duration 35.0, Exclusion List Size 500, Exclusion Duration 40.0, Exclusion Mass Width Relative to Mass, Exclusion Mass Width 10ppm). […]

[1] = AHCTF1 peptide 1205/1240 - STlrSTplaSpspSpgrSpqr - 1225/1265
[2] = AHNAK peptide 5778 - hrSnSfSderefSgpsTpTglefeggevsleggk - 5811
[3] = AKNA peptide 429 - vpqefqTpeqatelvhqlqedyhr - 452
[4] = ANLN peptide 381 - cqehSkeSparsTphrTpiiTpntk - 405
[5] = ARHGAP19 peptide 443 - knpTpesvaigelk - 456
[6] = ARID4B peptide 922/1008 - kaefpssgsnsvlnTpptTpespssvtvtegsr - 954/1040
[7] = ATN1 peptide 158 - pyhppplfppSpqppdstpr - 177
[8] = BAP1 peptide 513 - sanptrpsSpvtshisk - 529
[9] = BCL11B peptide 367 - lrelagnSSTpppvSpgrgnpmhr - 390
[10] = CC2D1A peptide 200 - gpasTpTySpaptqpapr - 217
[11] = CDT1 peptide 72 - lsvdevsSpstpeapdipacpspgqk - 97
[12] = CDT1 peptide 72 - lsvdevsspsTpeapdipacpSpgqk - 97
[13] = CHAMP1 peptide 198 - lapvpspepqkpapvSpesvk - 219
[14] = CHD4 peptide 1530 - mSqpgSpSpkTpTpSTpgdTqpnTpapvppaedgik - 1565
[15] = CHD4 peptide 1531 - SqpgSpSpkTptpstpgdtqpntpapvppaedgik - 1565
[16] = CHD4 peptide 1540 - TpTpSTpgdtqpnTpapvppaedgik - 1565
[17] = CHD4 peptide 1540 - TptpStpgdtqpnTpapvppaedgikieenslk - 1572
[18] = ECT2 peptide 403 - krpSaehSlSigSlldiSnTpeSsinYgdtpk - 434
[19] = EEF1G peptide 379 - gqelafplSpdwqvdyesytwr - 100
[20] = EGR1 peptide 6 - aemqlmsplqisdpfgsfphSptmdnypk -34
[21] = EGR1 peptide 6 - aemqlmsplqisdpfgsfphspTmdnypk - 34
[22] = EPC2 peptide 343 - aealitsqqpTpetlpvink - 362

Cn1cc(-c2ccc(-c3cncc(Cl)c3N3CCC4(CCNC4=O)CC3)cc2)cn1 [CCT251545]
CMPD 1/DMSO [1]: 1.802 | MEAN MS SIGNAL CMPD 1 6 H [1]: 238204 | CMPD 1/DMSO [2]: 1.997 | MEAN MS SIGNAL CMPD 1 6 H [2]: 301575 | CMPD 1/DMSO [3]: 0.569 | MEAN MS SIGNAL CMPD 1 6 H [3]: 41850 | CMPD 1/DMSO [4]: 0.512 | MEAN MS SIGNAL CMPD 1 6 H [4]: 62532 | CMPD 1/DMSO [5]: 0.589 | MEAN MS SIGNAL CMPD 1 6 H [5]: 62950 | CMPD 1/DMSO [6]: 2.069 | MEAN MS SIGNAL CMPD 1 6 H [6]: 72000 | CMPD 1/DMSO [7]: 0.526 | MEAN MS SIGNAL CMPD 1 6 H [7]: 1231725 | CMPD 1/DMSO [8]: 1.826 | MEAN MS SIGNAL CMPD 1 6 H [8]: 26677 | CMPD 1/DMSO [9]: 1.888 | MEAN MS SIGNAL CMPD 1 6 H [9]: 33472 | CMPD 1/DMSO [10]: 0.625 | MEAN MS SIGNAL CMPD 1 6 H [10]: 70653 | CMPD 1/DMSO [11]: 0.368 | MEAN MS SIGNAL CMPD 1 6 H [11]: 55322 | CMPD 1/DMSO [12]: 0.429 | MEAN MS SIGNAL CMPD 1 6 H [12]: 15418 | CMPD 1/DMSO [13]: 2.031 | MEAN MS SIGNAL CMPD 1 6 H [13]: 849660 | CMPD 1/DMSO [14]: 0.456 | MEAN MS SIGNAL CMPD 1 6 H [14]: 51533 | CMPD 1/DMSO [15]: 0.310 | MEAN MS SIGNAL CMPD 1 6 H [15]: 35479 | CMPD 1/DMSO [16]: 0.193 | MEAN MS SIGNAL CMPD 1 6 H [16]: 31383 | CMPD 1/DMSO [17]: 0.000 | MEAN MS SIGNAL CMPD 1 6 H [17]: 0 | abundance of phospho-peptide corresponding to phospho-STAT1 SER727 (COLO205, 350 nM, 6 h): decrease in abundance | phospho-peptides whose label-free intensities remained unchanged (COLO205, 350 nM, 6 h): 95% | phosphorylation at MED13 THR565, MED14 SER1112 and MED26 SER314 (COLO205, 350 nM, 6 h): reducing phosphorylation | phosphorylation of POLR2A CTD phospho-peptides (COLO205, 350 nM, 6 h): no evidence of decreased phosphorylation | number of phospho-peptides consistently decreased by > 1.5-fold (COLO205, 350 nM, 6 h, both independent biological repeats, 2,734 phospho-peptides identified): 123 | number of individual proteins represented by the decreased phospho-peptides (COLO205, 350 nM, 6 h, > 1.5-fold decrease): 95 | CMPD 1/DMSO [18]: 0.501 | MEAN MS SIGNAL CMPD 1 6 H [18]: 22710 | CMPD 1/DMSO [19]: 0.521 | MEAN MS SIGNAL CMPD 1 6 H [19]: 184020 | CMPD 1/DMSO [20]: 0.400 | MEAN MS SIGNAL CMPD 1 6 H [20]: 23807 | CMPD 1/DMSO [21]: 0.452 | MEAN MS SIGNAL CMPD 1 6 H [21]: 16379 | CMPD 1/DMSO [22]: 0.365 | MEAN MS SIGNAL CMPD 1 6 H [22]: 24823 | CMPD 1/DMSO (EZH2 peptide 46 - grlpnnssrpstpTinvlesk - 376): 1.970
